# Measurements: patent US11001573B2, “Citric acid derivative” (ADABIO CO., LTD., priority 2015, dated 2021)
# System: Wistar male rats given galactosamine hydrochloride
# Test: Test on liver dysfunction suppression effect (galactosamine hydrochloride-induced liver disorder, plasma AST/ALT)
# Assay type: in vivo, rat
# Details: oral 7 days, 6 g/kg of 6 mg/mL solution, galactosamine hydrochloride 750 mg/kg i.p. on day 7, blood on day 9, vs control administration group (p<0.05, Dunnett)
# Procedure: (Preparation of Administration Products for Animal Test)
# (1) Preparation of Compound I Administration Product
# An 8 N sodium hydroxide aqueous solution was added dropwise to 100 mL of roughly purified solution I in small amounts, while checking the pH with a pH meter, to adjust the acid-base property of the solution to pH 6.5. Further, the mixture was diluted with a solvent.
# (2) Preparation of Compound V Administration Product
# An 8 N sodium hydroxide aqueous solution was added dropwise to 100 mL of roughly purified solution I in small amounts, while checking the pH with a pH meter, to adjust the acid-base property of the solution to pH 8.6, followed by heating at 121° C. for 30 minutes, and further the mixture was diluted with a solvent (the pH of the solution after the heating changed to about pH 6.2 due to acid formation by hydrolysis reaction).
# (Test on Liver Dysfunction Suppression Effect)
# The aforementioned administration products (1) and (2) were dissolved in a solvent composed of oligosaccharide, cyclic oligosaccharide, and D-sorbitol to give a solution, and the final concentration of compounds I and V dissolved in the solution administered was adjusted to 6 mg/mL. The solution in an amount of 6 g/kg as calculated from specific gravity of the solution was orally administered to 8 week-old Wistar male rats (CHARLES RIVER LABORATORIES JAPAN, INC.) for 7 days with free access to commercially available solid feed and tap water. The solvent free from the aforementioned compounds (1) and (2) in an amount of 6 g/kg was orally administered to the control animals for 7 days. On the 7th day after the start of administration, a 750 mg/kg dose of galactosamine hydrochloride (Wako Pure Chemical Industries, Ltd.) was intraperitoneally administered to each of the animals to which the control and compounds I and V were administered, and the abdomen was opened on the 9th day after the start of administration under pentobarbital anesthesia (50 mg/kg), to collect heparinized blood from the abdominal aorta. The obtained blood was separated into blood plasma, and the AST and ALT values thereof were measured by the JSCC standardization-corresponding method. In FIG. 14, the results are shown as average+standard deviation (the number of animals of each group was 20). Symbol * represents a significant difference (p<0.05) from the control group, which was tested by the Dunnett's test after the one-way analysis of variance.
smiles,measurement,value
O=C(O)CC(NC(=O)CC(O)(CC(=O)O)C(=O)O)C(=O)O (stereo not shown) [compound V],ALT value in blood plasma,significantly low
same,AST value in blood plasma,significantly low
O=C(O)CC(C(=O)O)N1C(=O)CC(O)(CC(=O)O)C1=O (stereo not shown) [compound I],ALT value in blood plasma,significantly low
same,AST value in blood plasma,significantly low
